The text below walks through data of patent US11267825B2 (AICURIS GMBH & CO. KG, priority 2017, dated 2022).

As a reminder, the IC50 is the concentration that inhibits the measured activity by half. A word on the EC50: it is the concentration at which the effect is half-maximal.

A value given as a limit tells only on which side of the number the result lay.

One assay addresses HBV core protein (UniProt P03146). In kind it is biochemical. Particulars: read-out: Assembly Activity (IC50); BODIPY-FL labelled core protein, assembly started with NaCl, read after 6 min. The method, boiled down:
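Fluorescence-quenching assembly assay using E. coli-expressed core protein 1–149 plus Cys150, labelled with BODIPY-FL maleimide, at 1.0–2.0 μM in 50 mM HEPES pH 7.5, 0.5% DMSO. Assembly started with NaCl to […]; fluorescence (ex 477/em 525 nm) read after 6 min. EC50 by non-linear regression, 8-point 0.5-log dilutions.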

In the next assay the test system is HBV. Description: Determination of HBV DNA from the supernatants of HepAD38 cells (anti-HBV activity). Type of assay: cell-based, hepatitis B virus. Particulars: Hepatitis B virus, 144 h; HBV DNA in HepAD38 supernatant at day 6; read-out: Cell Activity (EC50). The method, boiled down:
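HepAD38 cells (60,000/well) were treated with half-log compound dilutions in tetracycline-free medium to induce HBV production. On day 6, HBV DNA was purified from filtered supernatant and quantified by real-time PCR against plasmid standards. EC50 values came from non-linear regression of relative copy numbers, typically from three experiments in triplicate.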

Chain of HBV core protein (P03146 whole entry, looked up): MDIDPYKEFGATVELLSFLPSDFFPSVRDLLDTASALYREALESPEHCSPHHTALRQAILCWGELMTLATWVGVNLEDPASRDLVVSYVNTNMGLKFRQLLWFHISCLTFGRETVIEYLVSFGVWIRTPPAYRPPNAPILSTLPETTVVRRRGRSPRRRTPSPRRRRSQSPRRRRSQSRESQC

Regarding `O=C(c1cc2ccccc2[nH]1)N1CCc2nc(NCC(O)CO)sc2C1` (stereo not shown) [Example 208, 3-{[5-(1H-indole-2-carbonyl)-4H,5H,6H,7H-[1,3]thiazolo[5,4-c]pyridin-2-yl]amino}propane-1,2-diol], the IC50 on HBV core protein was less than 5 µM. Moreover, the EC50 with HBV is less than 1 µM.

Consider `O=C(c1cc2ccccc2[nH]1)N1CCc2nc(NCCN3CCOCC3)sc2C1` [Example 36, 5-(1H-indole-2-carbonyl)-N-[2-(morpholin-4-yl)ethyl]-4H,5H,6H,7H-[1,3]thiazolo[5,4-c]pyridin-2-amine], for which the IC50 at HBV core protein lay within 5 to 10 µM. Also, the EC50 with HBV was in the range of 1 to 10 µM.

In the case of `O=C(Nc1nc2c(s1)CN(C(=O)c1cc3c(C(F)F)cccc3[nH]1)CC2)C1CCOCC1` [Example 400, N-{5-[4-(difluoromethyl)-1H-indole-2-carbonyl]-4H,5H,6H,7H-[1,3]thiazolo[5,4-c]pyridin-2-yl}oxane-4-carboxamide], the IC50 on HBV core protein is less than 5 µM. For the same molecule, the half-maximal effective concentration (EC50) in the assay with HBV is less than 1 µM.

As to `O=C(c1cc2ccccc2[nH]1)N1CCc2nc(CNC3CC3)sc2C1` [Example 38, N-{[5-(1H-indole-2-carbonyl)-4H,5H,6H,7H-[1,3]thiazolo[5,4-c]pyridin-2-yl]methyl}cyclopropanamine], the IC50 at HBV core protein is less than 5 µM. The EC50 in the assay on HBV is less than 1 µM.

With `Nc1nc2c(s1)CN(C(=O)c1cc3cc(F)ccc3[nH]1)CC2` [Example 196, 5-(5-fluoro-1H-indole-2-carbonyl)-4H,5H,6H,7H-[1,3]thiazolo[5,4-c]pyridin-2-amine], the IC50 at HBV core protein was less than 5 µM. In addition, in the assay on HBV, the EC50 fell in the range of 1 to 10 µM.

As for `CC(C)(CO)CNc1nc2c(s1)CN(C(=O)c1cc3ccccc3[nH]1)CC2` [Example 221, 3-{[5-(1H-indole-2-carbonyl)-4H,5H,6H,7H-[1,3]thiazolo[5,4-c]pyridin-2-yl]amino}-2,2-dimethylpropan-1-ol], the IC50 at HBV core protein was less than 5 µM. In addition, the EC50 in the assay on HBV was less than 1 µM.

In the case of `CCc1cc(F)cc2[nH]c(C(=O)N3CCc4nc(NC[C@@H]5CCOC5)sc4C3)cc12` [Example 328, 5-(4-ethyl-6-fluoro-1H-indole-2-carbonyl)-N-{[(3S)-oxolan-3-yl]methyl}-4H,5H,6H,7H-[1,3]thiazolo[5,4-c]pyridin-2-amine], the IC50 on HBV core protein was less than 5 µM. Besides, the EC50 in the assay on HBV is less than 1 µM.

With `CC1(CNc2nc3c(s2)CN(C(=O)c2cc4ccccc4[nH]2)CC3)CCOC1` (stereo not shown) [Example 49, 5-(1H-indole-2-carbonyl)-N-[(3-methyloxolan-3-yl)methyl]-4H,5H,6H,7H-[1,3]thiazolo[5,4-c]pyridin-2-amine], the IC50 on HBV core protein was less than 5 µM. Further, the concentration giving a half-maximal response (EC50) in the assay on HBV was less than 1 µM.

On to `Nc1nc2c(s1)CN(C(=O)c1cc3cccc(Br)c3[nH]1)CC2` [Example 171, 5-(7-bromo-1H-indole-2-carbonyl)-4H,5H,6H,7H-[1,3]thiazolo[5,4-c]pyridin-2-amine], for which the IC50 at HBV core protein was less than 5 µM. Moreover, in the assay on HBV, the EC50 was less than 1 µM.

As for `COCCNc1nc2c(s1)CN(C(=O)c1cc3ccccc3[nH]1)CC2` [Example 97, 5-(1H-indole-2-carbonyl)-N-(2-methoxyethyl)-4H,5H,6H,7H-[1,3]thiazolo[5,4-c]pyridin-2-amine], the IC50 at HBV core protein is less than 5 µM. Besides, the EC50 in the assay on HBV is less than 1 µM.

Consider `O=C(c1cc2c(C(F)F)cc(F)cc2[nH]1)N1CCc2nc(NCC3CCOC3)sc2C1` (stereo not shown) [Example 326, 5-[4-(difluoromethyl)-6-fluoro-1H-indole-2-carbonyl]-N-[(oxolan-3-yl)methyl]-4H,5H,6H,7H-[1,3]thiazolo[5,4-c]pyridin-2-amine], for which the IC50 at HBV core protein is less than 5 µM. For the same molecule, in the assay with HBV, the EC50 was less than 1 µM.

For the molecule `O=C(c1cc2ccccc2[nH]1)N1CCc2nc(NCC3(CO)CCC3)sc2C1` [Example 27, [1-({[5-(1H-indole-2-carbonyl)-4H,5H,6H,7H-[1,3]thiazolo[5,4-c]pyridin-2-yl]amino}methyl)cyclobutyl]methanol], the IC50 on HBV core protein was less than 5 µM. For the same molecule, the EC50 with HBV was less than 1 µM.

On to `O=C(c1cc2c(F)ccc(F)c2[nH]1)N1CCc2nc(NCC3CCOC3)sc2C1` (stereo not shown) [Example 122, 5-(4,7-difluoro-1H-indole-2-carbonyl)-N-[(oxolan-3-yl)methyl]-4H,5H,6H,7H-[1,3]thiazolo[5,4-c]pyridin-2-amine], for which the IC50 on HBV core protein is less than 5 µM. Also, the EC50 in the assay on HBV is less than 1 µM.

`Nc1nc2c(s1)CN(C(=O)c1cc3ccc(C(F)(F)F)cc3[nH]1)CC2` [Example 199, 5-[6-(trifluoromethyl)-1H-indole-2-carbonyl]-4H,5H,6H,7H-[1,3]thiazolo[5,4-c]pyridin-2-amine]: at HBV core protein, the IC50 was less than 5 µM. In addition, the EC50 with HBV was less than 1 µM.

Regarding `O=C(c1cc2c(Cl)cccc2[nH]1)N1CCc2nc(NC3(CO)CCC3)sc2C1` [Example 224, (1-{[5-(4-chloro-1H-indole-2-carbonyl)-4H,5H,6H,7H-[1,3]thiazolo[5,4-c]pyridin-2-yl]amino}cyclobutyl)methanol], on HBV core protein, the IC50 is less than 5 µM. For the same molecule, the EC50 with HBV is less than 1 µM.

On to `Nc1nc2c(s1)CN(C(=O)c1cc3c(Cl)c(F)ccc3[nH]1)CC2` [Example 80, 5-(4-chloro-5-fluoro-1H-indole-2-carbonyl)-4H,5H,6H,7H-[1,3]thiazolo[5,4-c]pyridin-2-amine], for which the IC50 at HBV core protein is less than 5 µM. Besides, in the assay on HBV, the EC50 was less than 1 µM.

Take `Nc1nc2c(s1)CN(C(=O)c1cc3ccc(Cl)cc3[nH]1)CC2` [Example 156, 5-(6-chloro-1H-indole-2-carbonyl)-4H,5H,6H,7H-[1,3]thiazolo[5,4-c]pyridin-2-amine]: on HBV core protein, the IC50 is less than 5 µM. Moreover, the EC50 in the assay with HBV is less than 1 µM.

For `O=C(c1cc2ccccc2[nH]1)N1CCc2nc(NCC3CNCCO3)sc2C1` (stereo not shown) [Example 260, 5-(1H-indole-2-carbonyl)-N—[(morpholin-2-yl)methyl]-4H,5H,6H,7H-[1,3]thiazolo[5,4-c]pyridin-2-amine], the IC50 on HBV core protein is less than 5 µM. Further, in the assay with HBV, the EC50 lay in the range of 1 to 10 µM.

Regarding `CC(O)c1cc(F)cc2[nH]c(C(=O)N3CCc4nc(NCC5(O)CCC5)sc4C3)cc12` (stereo not shown) [Example 366, 1-[({5-[6-fluoro-4-(1-hydroxyethyl)-1H-indole-2-carbonyl]-4H,5H,6H,7H-[1,3]thiazolo[5,4-c]pyridin-2-yl}amino)methyl]cyclobutan-1-ol], the IC50 on HBV core protein was less than 100 µM. For the same molecule, the EC50 in the assay on HBV was less than 1 µM.

In the case of `O=C(c1cc2ccc(Cl)cc2[nH]1)N1CCc2nc(NC3(CO)CCC3)sc2C1` [Example 299, (1-{[5-(6-chloro-1H-indole-2-carbonyl)-4H,5H,6H,7H-[1,3]thiazolo[5,4-c]pyridin-2-yl]amino}cyclobutyl)methanol], the IC50 on HBV core protein is less than 5 µM. In the assay on HBV, the EC50 is less than 1 µM.

As for `O=C(Nc1nc2c(s1)CN(C(=O)c1cc3ccccc3[nH]1)CC2)NS(=O)(=O)C1CC1` [Example 390, 3-(cyclopropanesulfonyl)-1-[5-(1H-indole-2-carbonyl)-4H,5H,6H,7H-[1,3]thiazolo[5,4-c]pyridin-2-yl]urea], the IC50 on HBV core protein is less than 5 µM. In addition, the EC50 in the assay with HBV is less than 100 µM.

Take `N#CC1(C(=O)Nc2nc3c(s2)CN(C(=O)c2cc4ccccc4[nH]2)CC3)CC1` [Example 336, 1-cyano-N-[5-(1H-indole-2-carbonyl)-4H,5H,6H,7H-[1,3]thiazolo[5,4-c]pyridin-2-yl]cyclopropane-1-carboxamide]: the IC50 on HBV core protein was in the range of 5 to 10 µM. The EC50 with HBV was less than 1 µM.

`CS(=O)(=O)Nc1nc2c(s1)CN(C(=O)c1cc3ccccc3[nH]1)CC2` [Example 24, N-[5-(1H-indole-2-carbonyl)-4H,5H,6H,7H-[1,3]thiazolo[5,4-c]pyridin-2-yl]methanesulfonamide]: on HBV core protein, the IC50 was less than 100 µM. Besides, in the assay with HBV, the EC50 is 1 to 10 µM.

Take `O=C(c1cc2ccccc2[nH]1)N1CCc2nc(NCC3COC3)sc2C1` [Example 126, 5-(1H-indole-2-carbonyl)-N-[(oxetan-3-yl)methyl]-4H,5H,6H,7H-[1,3]thiazolo[5,4-c]pyridin-2-amine]: at HBV core protein, the IC50 was in the range of 5 to 10 µM. In the assay on HBV, the EC50 fell in the range of 1 to 10 µM.

On to `CC1(C)CC1C(=O)Nc1nc2c(s1)CN(C(=O)c1cc3ccccc3[nH]1)CC2` (stereo not shown) [Example 267, N-[5-(1H-indole-2-carbonyl)-4H,5H,6H,7H-[1,3]thiazolo[5,4-c]pyridin-2-yl]-2,2-dimethylcyclopropane-1-carboxamide], for which the IC50 at HBV core protein was 5 to 10 µM. The EC50 in the assay with HBV was less than 1 µM.

Take `CC(C)(C)CC(=O)Nc1nc2c(s1)CN(C(=O)c1cc3c(Cl)cccc3[nH]1)CC2` [Example 263, N-[5-(4-chloro-1H-indole-2-carbonyl)-4H,5H,6H,7H-[1,3]thiazolo[5,4-c]pyridin-2-yl]-3,3-dimethylbutanamide]: the IC50 on HBV core protein lay within 5 to 10 µM. The EC50 in the assay with HBV was less than 1 µM.

As for `CC(Nc1nc2c(s1)CN(C(=O)c1cc3ccccc3[nH]1)CC2)C1CCOC1` (stereo not shown) [Example 247, 5-(1H-indole-2-carbonyl)-N-[1-(oxolan-3-yl)ethyl]-4H,5H,6H,7H-[1,3]thiazolo[5,4-c]pyridin-2-amine], the IC50 on HBV core protein is less than 5 µM. In addition, the EC50 with HBV is less than 1 µM.

As for `CC(C)(C)OC(=O)N1CCC(O)(CNc2nc3c(s2)CN(C(=O)c2cc4ccccc4[nH]2)CC3)CC1` [Example 219, tert-butyl 4-hydroxy-4-({[5-(1H-indole-2-carbonyl)-4H,5H,6H,7H-[1,3]thiazolo[5,4-c]pyridin-2-yl]amino}methyl)piperidine-1-carboxylate], on HBV core protein, the IC50 was 5 to 10 µM. Moreover, the 50% effective concentration (EC50) with HBV was less than 1 µM.

With `O=C(c1cc2ccccc2[nH]1)N1CCc2nc(CO)sc2C1` [Example 31, [5-(1H-indole-2-carbonyl)-4H,5H,6H,7H-[1,3]thiazolo[5,4-c]pyridin-2-yl]methanol], the IC50 on HBV core protein was in the range of 5 to 10 µM. Moreover, the EC50 with HBV is 1 to 10 µM.
